{
  "source": "patent US20090169635A1",
  "about": "“PHARMACEUTICAL COMPOSITIONS AND USE THEREOF” (priority 2007, published 2009)",
  "key": {"[1]": {"system": "Mycobacterium tuberculosis strain H37RV (ATCC 27294)", "test": "Tuberculosis model: mice inoculated intravenously with M. tuberculosis, treated intraperitoneally for 4 weeks, observed to D56", "assay_type": "in vivo, BALB/C female mice", "details": "for Numbers of deaths: 4 weeks"}, "[2]": {"system": "Mycobacter avium complex (MAC)", "details": "100 mg/kg IM five days a week for four weeks; cited from earlier work"}, "[3]": {"system": "Staphylococcus pneumoniae (ATCC 6301)", "test": "Bacterial pneumonia model: mice inoculated intratracheally, single intravenous treatment 20 hours later, mortality recorded for 10 days", "assay_type": "in vivo, Male CD-1 mice", "details": "Vancomycin dose 1 mg/kg i.v.", "protocol": "An investigation of the antibacterial efficacy of nanoparticulate forms of parenterally administered Vancomycin was carried out in comparison with conventional parenteral Vancomycin […] for injection,\nBacteria: […] (ATCC #6301), Gram-positive serotype\nAnimals: Male CD-1 (Charles River Laboratory) mice weighing 24±2 g provided are used. Space allocation for animals is 45×23×21 cm for 10 mice. The animals are housed in animal cages and are maintained in a hygienic environment under controlled temperature (22°-23° C.) and humidity (50% -60%) with 12 hours light/dark cycles for at least one week in the laboratory prior to initiation of the study. Free access to standard lab food and water supply is allowed.\nPneumonia model: Mice were inoculated intratracheally (IT) with a LD90-100 of […] pneumoniae (ATCC 6301) (9.7×10^6 […]) in 40 μl PBS. In 16 hours, all mice developed pronounced pneumonia, confirmed by histological observation. Test formulations and vehicle were diluted with 5% sterile dextrose and administered intravenously to animals 20 hours after bacterial inoculation. Mortality was recorded once daily for 10 days."}, "[4]": {"details": "cited from earlier work"}, "[5]": {"details": "100 mg/kg i.p., 2 x week, cumulative 800 mg/kg"}, "[6]": {"details": "200 mg/kg i.p., 5 x week, cumulative 4000 mg/kg"}, "[7]": {"details": "D56, 200 mg/kg i.p., 5 x week for 4 weeks"}},
  "note": "Where a name gives a salt, the structure may show the parent alone.",
  "data": [
    {"compound": "[H]/N=C(/N)N[C@H]1[C@H](O)[C@@H](O)[C@H](O[C@@H]2O[C@@H](C)[C@](O)(C=O)[C@H]2O[C@@H]2O[C@@H](CO)[C@H](O)[C@@H](O)[C@@H]2NC)[C@@H](N/C(N)=N\\[H])[C@@H]1O", "note": "[Streptomycin USP, Streptomycin sulfate]", "values": [
      {"measurement": "Numbers of deaths", "setting": "[1]; 100 mg/kg i.p., 2 x week, cumulative 800 mg/kg SM base", "result": "5/12"},
      {"measurement": "Survival rate (%) 14 d", "setting": "[1]; [5]", "result": 83, "unit": "%"},
      {"measurement": "Survival rate (%) 28 d", "setting": "[1]; [5]", "result": 58, "unit": "%"},
      {"measurement": "Survival rate (%) 56 d", "setting": "[1]; [5]", "result": 58, "unit": "%"},
      {"measurement": "Numbers of deaths", "setting": "[1]; 200 mg/kg i.p., 5 x week, cumulative 4000 mg/kg SM base", "result": "1/12"},
      {"measurement": "Survival rate (%) 14 d", "setting": "[1]; [6]", "result": 92, "unit": "%"},
      {"measurement": "Survival rate (%) 28 d", "setting": "[1]; [6]", "result": 92, "unit": "%"},
      {"measurement": "Survival rate (%) 56 d", "setting": "[1]; [6]", "result": 92, "unit": "%"},
      {"measurement": "Body weight", "setting": "[1]; D14, 100 mg/kg i.p., 2 x week", "result": "14.90 ± 1.83", "unit": "g"},
      {"measurement": "Log (CFU/Lung)", "setting": "[1]; D14, 100 mg/kg i.p., 2 x week", "result": "8.16 ± 0.25 Log (CFU/Lung)"},
      {"measurement": "Log (CFU/Spleen)", "setting": "[1]; D14, 100 mg/kg i.p., 2 x week", "result": "7.55 ± 0.26 Log (CFU/Spleen)"},
      {"measurement": "Body weight", "setting": "[1]; D14, 200 mg/kg i.p., 5 x week", "result": "16.22 ± 0.39", "unit": "g"},
      {"measurement": "Log (CFU/Lung)", "setting": "[1]; D14, 200 mg/kg i.p., 5 x week", "result": "7.85 ± 0.14 Log (CFU/Lung)"},
      {"measurement": "Log (CFU/Spleen)", "setting": "[1]; D14, 200 mg/kg i.p., 5 x week", "result": "6.90 ± 0.08 Log (CFU/Spleen)"},
      {"measurement": "Body weight", "setting": "[1]; D28, 100 mg/kg i.p., 2 x week", "result": "16.73 ± 2.64", "unit": "g"},
      {"measurement": "Log (CFU/Lung)", "setting": "[1]; D28, 100 mg/kg i.p., 2 x week", "result": "8.37 ± 0.36 Log (CFU/Lung)"},
      {"measurement": "Log (CFU/Spleen)", "setting": "[1]; D28, 100 mg/kg i.p., 2 x week", "result": "7.48 ± 0.51 Log (CFU/Spleen)"},
      {"measurement": "Body weight", "setting": "[1]; D28, 200 mg/kg i.p., 5 x week", "result": "19.62 ± 0.29", "unit": "g"},
      {"measurement": "Log (CFU/Lung)", "setting": "[1]; D28, 200 mg/kg i.p., 5 x week", "result": "7.57 ± 0.26 Log (CFU/Lung)"},
      {"measurement": "Log (CFU/Spleen)", "setting": "[1]; D28, 200 mg/kg i.p., 5 x week", "result": "6.66 ± 0.28 Log (CFU/Spleen)"},
      {"measurement": "Body weight", "setting": "[1]; [7]", "result": "17.85 ± 1.15", "unit": "g"},
      {"measurement": "Log (CFU/Lung)", "setting": "[1]; [7]", "result": "8.86 ± 0.18 Log (CFU/Lung)"},
      {"measurement": "Log (CFU/Spleen)", "setting": "[1]; [7]", "result": "7.21 ± 0.23 Log (CFU/Spleen)"},
      {"measurement": "bacterial count of MAC from spleen, lungs and liver", "setting": "[2]", "result": "significant reduction in bacterial count"}
    ]},
    {"compound": "Vancomycin sulfate [Vancomycin injection (USP)]", "values": [
      {"measurement": "Mortality", "setting": "[3]; 10 days", "result": 70, "unit": "%"},
      {"measurement": "Survival", "setting": "[3]; 10 days", "result": 30, "unit": "%"},
      {"measurement": "Day 1 (deaths recorded that day)", "setting": "[3]; n=10, Day 1", "result": 0},
      {"measurement": "Day 2 (deaths recorded that day)", "setting": "[3]; n=10, Day 2", "result": 0},
      {"measurement": "Day 3 (deaths recorded that day)", "setting": "[3]; n=10, Day 3", "result": 0},
      {"measurement": "Day 4 (deaths recorded that day)", "setting": "[3]; n=10, Day 4", "result": 1},
      {"measurement": "Day 5 (deaths recorded that day)", "setting": "[3]; n=10, Day 5", "result": 3},
      {"measurement": "Day 6 (deaths recorded that day)", "setting": "[3]; n=10, Day 6", "result": 2},
      {"measurement": "Day 7 (deaths recorded that day)", "setting": "[3]; n=10, Day 7", "result": 0},
      {"measurement": "Day 8 (deaths recorded that day)", "setting": "[3]; n=10, Day 8", "result": 1},
      {"measurement": "Day 9 (deaths recorded that day)", "setting": "[3]; n=10, Day 9", "result": 0},
      {"measurement": "Day 10 (deaths recorded that day)", "setting": "[3]; n=10, Day 10", "result": 0},
      {"measurement": "concentration in epithelial lining fluid", "setting": "[4]; patients, lung epithelial lining fluid versus plasma", "result": "≤ 20 % of plasma levels"},
      {"measurement": "patients with inadequate concentrations", "setting": "[4]; standard dosage (1 g twice daily)", "result": "approximately 40 % of patients"}
    ]}
  ]
}
